*1 amine or outer side, *2 acyl side, *3 side chain or, on linkers, in order; H or OH if unused. Where a SMILES comes first, the peptide text is derived from it. Side-chain parts run from the residue outwards. [ ]: non-standard residue; d: D form. The star is where a group is joined. PEG24 = NCCOCCOCCOCCOCCOCCOCCOCCOCCOCCOCCOCCOCCOCCOCCOCCOCCOCCOCCOCCOCCOCCOCCOCCOCCC(=O)O; Bip(2'-Et-4'-O(CH2)4NH2) = CCc1cc(OCCCCN[*:3])ccc1-c1ccc(C[C@H](N[*:1])C(=O)[*:2])cc1; Bip(2'-Et,4'-O(CH2)4N3) = CCc1cc(OCCCCN=[N+]=[N-])ccc1-c1ccc(C[C@H](N)C(=O)O)cc1; Malonyl(2,2-Me2,histaminyl) = CC(C)(C(=O)NCCc1cnc[nH]1)C(=O)*; Nva(5-(3,5-Me2Ph)) = Cc1cc(C)cc(CCC[C@H](N)C(=O)O)c1; Ala(1H-tetrazol-5-yl) = N[C@@H](Cc1nnn[nH]1)C(=O)O; αMePhe(2-F) = C[C@](N)(Cc1ccccc1F)C(=O)O; DBCO = C1#Cc2ccccc2N(*)Cc2ccccc21; Suc = O=C(CCC(=O)[*:2])[*:1]
Legend:
[1] = system: HEK293/CRE-Luc cells; assay: Luciferase reporter assay, HEK293/CRE-Luc cells without hGLP1R (Example 11); assay type: cell-based, human; settings: Experiment A
Method in brief: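 Counter-screen in HEK293 cells carrying CRE-driven firefly luciferase without hGLP1R; 3-fold serial dilutions of payloads or linker-payloads at 0.2% final DMSO, 4–6 h.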

[2] = system: HEK293/CRE-Luc cells; assay: Luciferase reporter assay, HEK293/CRE-Luc cells without GLP1R (Example 17); assay type: cell-based, human; settings: HEK293/CRE-Luc cells without hGLP1R, payloads and linker-payloads; for EC50: read-out: EC50
Method in brief: (§1)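 HEK293 cells carrying a CRE-driven firefly luciferase reporter were exposed to 3-fold serial dilutions of payloads or linker-payloads (12 points, 0.2% DMSO final) for 4–6 h, then luminescence was read. EC50 came from a four-parameter logistic fit; S/N is top RLU over untreated wells, and relative potency and S/N are referenced to M2361.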

[3] = target: T1, human GLP1R (Homo sapiens, UniProt P43220); assay: CRE-luciferase reporter assay, HEK293/Myc-hGLP1R/Cre-Luc (Example 9); assay type: cell-based; design: engineered to express full-length human GLP1R, cynomolgus GLP1R; expressed in transfected cells; host or cells: HEK293/CRE-Luc; settings: Table 9; 5.5 h; read-out: HEK293/Myc-hGLP1R/Cre-Luc EC50
T1 sequence (P43220 24-463): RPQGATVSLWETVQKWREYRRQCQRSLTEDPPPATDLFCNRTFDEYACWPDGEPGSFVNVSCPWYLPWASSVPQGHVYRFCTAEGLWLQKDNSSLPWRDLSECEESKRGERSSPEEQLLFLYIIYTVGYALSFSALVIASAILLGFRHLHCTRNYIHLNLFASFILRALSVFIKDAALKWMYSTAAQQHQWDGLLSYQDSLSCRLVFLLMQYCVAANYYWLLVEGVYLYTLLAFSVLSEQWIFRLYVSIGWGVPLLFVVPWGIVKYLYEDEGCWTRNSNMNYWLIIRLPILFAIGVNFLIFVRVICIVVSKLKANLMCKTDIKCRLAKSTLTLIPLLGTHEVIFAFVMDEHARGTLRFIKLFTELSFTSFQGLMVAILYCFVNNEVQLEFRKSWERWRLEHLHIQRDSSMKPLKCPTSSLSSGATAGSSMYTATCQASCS
Procedure: To test the activity of GLP1R agonist payloads and GLP1R agonist linker-payloads (LPs) in vitro, a cell-based cAMP responsive luciferase reporter assay was developed.
Cells were incubated overnight at 37° C. in 5% CO2. […] Plates were incubated for 5.5 h at 37° C. in 5% CO2. For end-point measurement, 100 μL/well of One-Glo reagent (Promega, #E6051) was added and plates were kept at room temperature for 5-10 minutes. Luciferase activity was measured on Envision Multilabel Plate Reader (Perkin Elmer) in Luminescent mode. The relative light units (RLU) values were obtained and the results were analyzed using nonlinear regression with GraphPad Prism software (GraphPad).

[4] = target: T1, human GLP1R; assay: Luciferase reporter assay, HEK293/CRE-Luc/hGLP1R cells (Example 11); assay type: cell-based; design: engineered to express full-length human GLP1R, cynomolgus GLP1R; expressed in transfected cells; host or cells: HEK293/CRE-Luc
[5] = target: T1, human GLP1R; assay: Luciferase reporter assay, HEK293/CRE-Luc/hGLP1R (Example 17); assay type: cell-based; design: engineered to express full-length human GLP1R, cynomolgus GLP1R; expressed in transfected cells; host or cells: HEK293/CRE-Luc; settings: HEK293/CRE-Luc/hGLP1R; for S/N: highest RLU / RLU of untreated wells; for Relative Potency (% M2361 EC50) / Relative Signal:Noise (% M2361): relative to M2361 of the same experiment
Method in brief: as §1

[6] = target: hERG potassium channels (Homo sapiens, UniProt Q12809); assay: cell-based
Chain of hERG potassium channels (Q12809 whole entry): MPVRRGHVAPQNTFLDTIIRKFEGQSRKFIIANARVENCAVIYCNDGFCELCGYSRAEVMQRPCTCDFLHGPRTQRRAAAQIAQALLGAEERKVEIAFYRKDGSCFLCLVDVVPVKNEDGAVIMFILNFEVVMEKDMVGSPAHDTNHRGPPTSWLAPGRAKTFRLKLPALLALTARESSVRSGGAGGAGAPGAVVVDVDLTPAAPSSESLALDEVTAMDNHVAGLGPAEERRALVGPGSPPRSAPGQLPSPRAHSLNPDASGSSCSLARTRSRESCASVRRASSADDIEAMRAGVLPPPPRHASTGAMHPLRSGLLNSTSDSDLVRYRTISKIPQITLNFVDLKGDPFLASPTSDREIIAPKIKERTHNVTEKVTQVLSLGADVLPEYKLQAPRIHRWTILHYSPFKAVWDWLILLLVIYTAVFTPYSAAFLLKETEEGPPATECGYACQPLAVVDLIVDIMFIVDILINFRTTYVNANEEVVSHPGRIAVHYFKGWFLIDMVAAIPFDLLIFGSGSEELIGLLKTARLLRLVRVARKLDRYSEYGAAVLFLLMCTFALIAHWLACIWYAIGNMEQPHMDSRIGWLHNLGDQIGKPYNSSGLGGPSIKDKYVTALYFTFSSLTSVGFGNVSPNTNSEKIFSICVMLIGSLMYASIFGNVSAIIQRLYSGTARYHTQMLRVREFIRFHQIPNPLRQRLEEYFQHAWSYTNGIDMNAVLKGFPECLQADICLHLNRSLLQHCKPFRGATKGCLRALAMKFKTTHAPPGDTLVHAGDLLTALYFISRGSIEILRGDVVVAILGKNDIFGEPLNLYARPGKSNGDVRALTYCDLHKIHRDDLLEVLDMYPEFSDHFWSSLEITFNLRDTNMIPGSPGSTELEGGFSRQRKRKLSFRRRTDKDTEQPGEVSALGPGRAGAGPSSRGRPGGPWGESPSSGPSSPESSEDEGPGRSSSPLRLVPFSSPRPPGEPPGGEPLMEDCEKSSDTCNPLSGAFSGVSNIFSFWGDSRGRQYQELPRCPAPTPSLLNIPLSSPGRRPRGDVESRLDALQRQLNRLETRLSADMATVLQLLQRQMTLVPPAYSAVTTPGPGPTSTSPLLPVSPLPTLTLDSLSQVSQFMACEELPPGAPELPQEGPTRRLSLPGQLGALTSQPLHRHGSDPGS
Procedure: For the assay, CHO cells stably expressing hERG potassium channels were plated and cultured for at least 2 days in a humidified and air-controlled (5% CO2) incubator at 37° C. prior to use in electrophysiological experiments. Cells were then harvested using TrypLE and resuspended in physiological solution (10 mM HEPES, 80 mM NaCl, 4 mM KCl, 2 mM CaCl2, 1 mM MgCl2, 5 mM Glucose, 60 mM NM DG, pH 7.4). Test compounds were dissolved in water to obtain stock solutions for different test concentrations. […] One 40 μL addition of the vehicle was applied, followed by a 300s baseline recording period. […] Recordings were required to pass quality control over the duration of the recording or the well was abandoned, and the compound was retested, all automatically set by PatchControl. […] A minimum of 2 replicates per concentration were obtained. […] Curve-fitting and IC50 value calculations were performed by GraphPad Prism 5.0.

[7] = target: T1, human GLP1R; assay: Human GLP1R cAMP accumulation assay; assay type: cell-based; design: HEK293 cells over-expressing full length human GLP-1R were utilized; expressed in transfected cells; host or cells: HEK293 (HEK293/hGLP1R); settings: HEK293/hGLP1R cells; Table 4; read-out: cAMP EC50
Method in brief: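 cAMP accumulation measured after 30 min at 23° C, with 500 μM IBMX in HEPES-buffered HBSS plus 0.1% BSA, in HEK293 cells expressing full-length hGLP-1R. Levels read by D2-cAMP/antibody immunoassay via standard curve, scaled between low and high controls. EC50 fitted four-parameter over a 10-point curve.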

[8] = Plasma stability of payloads and linker-payloads, human plasma; assay type: in vitro ADME; settings: plasma, pH 7.4, tested time A (1 day per footnote), 2 μM, 37° C., read-out: Human plasma stability assay T½ (converted)
Method in brief: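 Pooled plasma, pH adjusted to 7.4±0.1 where needed, spiked to 2 μM compound (duplicate) and incubated at 37 °C. At each time point, protein was precipitated with ACN/MeOH stop solution containing internal standards; remaining compound quantified in supernatant by LC-MS/MS.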

CCc1cc(OCCCCNC(=O)CCOCCOCCOCCOCCOCCOCCOCCOCCOCCOCCOCCOCCOCCOCCOCCOCCOCCOCCOCCOCCOCCOCCOCCOCCNC(=O)CCC(=O)N2Cc3ccccc3C#Cc3ccccc32)ccc1-c1ccc(C[C@H](NC(=O)[C@H](CC(=O)O)NC(=O)[C@H](CO)NC(=O)[C@@H](NC(=O)[C@](C)(Cc2ccccc2F)NC(=O)[C@@H](NC(=O)CNC(=O)[C@H](Cc2nn[nH]n2)NC(=O)C(C)(C)C(=O)NCCc2cnc[nH]2)[C@@H](C)O)[C@@H](C)O)C(=O)N[C@@H](CCCc2cc(C)cc(C)c2)C(N)=O)cc1 [LP4, DIBAC-suc-PEG24-P9] ({Malonyl(2,2-Me2,histaminyl)}-[Ala(1H-tetrazol-5-yl)]GT[αMePhe(2-F)]TSD[Bip(2'-Et-4'-O(CH2)4NH2)]([PEG24-Suc-DBCO])[Nva(5-(3,5-Me2Ph))]-NH2)
EC50 ([1]; Table 11, no hGLP1R expression): > 200 nM
HEK293/CRE-LUC S/N ([1]; Table 11, no hGLP1R expression): 1.7
S/N [2]: 1.7
EC50 [2]: > 200 nM
EC50 [3]: 0.0715 nM
EC50 ([4]; Table 11, Experiment A): 0.127 nM
HEK293/CRE-LUC/hGLP1R Relative Potency (% P8 EC50) ([4]; Table 11, Experiment A): 4.2%
HEK293/CRE-LUC/hGLP1R S/N ([4]; Table 11, Experiment A): 63.8
S/N [5]: 63.8
Relative Potency (% M2361 EC50) [5]: 4.2%
Relative Signal:Noise (% M2361) [5]: 97.1%

CCc1cc(OCCCCn2cc(COCCOCCOCCOCCNC(=O)COC3C#CCCCCC3)nn2)ccc1-c1ccc(C[C@H](NC(=O)[C@H](CC(=O)O)NC(=O)[C@H](CO)NC(=O)[C@@H](NC(=O)[C@](C)(Cc2ccccc2F)NC(=O)[C@@H](NC(=O)CNC(=O)[C@H](Cc2nn[nH]n2)NC(=O)C(C)(C)C(=O)NCCc2cnc[nH]2)[C@@H](C)O)[C@@H](C)O)C(=O)N[C@@H](CCCc2cc(C)cc(C)c2)C(N)=O)cc1 (some centres unmarked) [LP10, COT-PEG4-triazole-P8]
IC50 [6]: > 100000 nM
S/N [2]: 1.1
EC50 [2]: > 200 nM
S/N [5]: 51.7
EC50 ([5]; payloads and linker-payloads, experiments A-E, M2361 repeated in each, read-out: EC50): 0.0391 nM
Relative Potency (% M2361 EC50) [5]: 13.6%
Relative Signal:Noise (% M2361) [5]: 78.7%
EC50 [7]: 0.982 nM

CCc1cc(OCCCCN=[N+]=[N-])ccc1-c1ccc(C[C@H](NC(=O)[C@H](CC(=O)O)NC(=O)[C@H](CO)NC(=O)[C@@H](NC(=O)[C@](C)(Cc2ccccc2F)NC(=O)[C@@H](NC(=O)CNC(=O)[C@H](Cc2nn[nH]n2)NC(=O)C(C)(C)C(=O)NCCc2cnc[nH]2)[C@@H](C)O)[C@@H](C)O)C(=O)N[C@@H](CCCc2cc(C)cc(C)c2)C(N)=O)cc1 [P8] ({Malonyl(2,2-Me2,histaminyl)}-[Ala(1H-tetrazol-5-yl)]GT[αMePhe(2-F)]TSD[Bip(2'-Et,4'-O(CH2)4N3)][Nva(5-(3,5-Me2Ph))]-NH2)
half-life at 2 µM [8]: > 57.8 h
EC50 ([1]; Table 11, no hGLP1R expression): > 200 nM
HEK293/CRE-LUC S/N ([1]; Table 11, no hGLP1R expression): 1.5
EC50 ([1]; Table 12): > 20 nM
HEK293/CRE-Luc S/N ([1]; Table 12): 1.3
EC50 [3]: 0.0076 nM
EC50 ([4]; Table 11, Experiment A): 0.00531 nM
HEK293/CRE-LUC/hGLP1R Relative Potency (% P8 EC50) ([4]; Table 11, Experiment A): 100.0%
HEK293/CRE-LUC/hGLP1R S/N ([4]; Table 11, Experiment A): 65.8
EC50 ([4]; Table 11, Experiment B): 0.02 nM
HEK293/CRE-LUC/hGLP1R Relative Potency (% P8 EC50) ([4]; Table 11, Experiment B): 100.0%
HEK293/CRE-LUC/hGLP1R S/N ([4]; Table 11, Experiment B): 327.9
EC50 ([4]; Table 11, Experiment D): 0.0273 nM
HEK293/CRE-LUC/hGLP1R Relative Potency (% P8 EC50) ([4]; Table 11, Experiment D): 100.0%
HEK293/CRE-LUC/hGLP1R Relative Signal:Noise (% P8) ([4]; Table 11, Experiment D): 100.0%
HEK293/CRE-LUC/hGLP1R S/N ([4]; Table 11, Experiment D): 235.9
EC50 ([4]; Table 12, Experiment A): 0.0162 nM
HEK293/CRE-Luc/hGLP1R Relative Potency (% P8 EC50) ([4]; Table 12, Experiment A): 100.0%
HEK293/CRE-Luc/hGLP1R Relative Signal:Noise (% P8) ([4]; Table 12, Experiment A): 100.0%
HEK293/CRE-Luc/hGLP1R S/N ([4]; Table 12, Experiment A): 64.3
EC50 ([4]; Table 12, Experiment D): 0.0273 nM
HEK293/CRE-Luc/hGLP1R Relative Potency (% P8 EC50) ([4]; Table 12, Experiment D): 100.0%
HEK293/CRE-Luc/hGLP1R Relative Signal:Noise (% P8) ([4]; Table 12, Experiment D): 100.0%
HEK293/CRE-Luc/hGLP1R S/N ([4]; Table 12, Experiment D): 235.9
EC50 [7]: 0.497 nM
